Experimental data reported in article PMC6848974 (Science translational medicine, 2019).

Tested on: A/WSN/33-nanoLuc or Ca/09
Type: cell-based, influenza A virus

In the case of `O=c1nc(NO)ccn1[C@@H]1O[C@H](CO)[C@@H](O)[C@H]1O` [NHC, N^4-hydroxycytidine], the “drug concentration resulting in virus extinction” value is reported as no less than 4 µM and the “repeat exposure of NHC-experienced virus populations” value is reported as “again rapidly sterilizing”.
